Data on eleven compounds can be found in patent publication US8822510B2, “Substituted 3-phenyl-1,2,4-Oxadiazole compounds” (Bristol-Myers Squibb Company, priority 2010, dated 2014).

Assay [1] addresses T1, S1P1 (Homo sapiens (Human), UniProt P21453). Put plainly: Receptor [35S] GTPγS Binding Assay, S1P1. In kind it is biochemical. Particulars: membranes from S1P1/CHO cells. The procedure: Membranes prepared from S1P1/CHO cells or EDG3-Ga15-b1a HEK293T cells were added to the compound plate (40 μl/well, final protein 3 μg/well) with MULTIDROP®. [^35S] GTP (1250 Ci/mmol, Perkin Elmer) was diluted in assay buffer: 20 mM HEPES, pH7.5, 10 mM MgCl2, 150 mM NaCl, 1 mM EGTA, 1 mM DTT, 10 μM GDP, 0.1% fatty acid free BSA, and 10 μg/ml Saponin to 0.4 nM. 40 μl of the [^35S] GTP solution was added to the compound plate with a final concentration of 0.2 nM. The reaction was kept at room temperature for 45 min. At the end of incubation, all the mixtures in the compound plate were transferred to Millipore 384-well FB filter plates via the VELOCITY 11® Vprep liquid handler. The filter plate was washed with water 4 times by using the manifold Embla plate washer and dried at 60° C. for 45 min. MicroScint 20 scintillation fluid (30 μl) was added to each well for counting on the Packard TOPCOUNT®. […] The results in Table B were rounded to two digits. […]

The target in the next assay is S1P3 (Homo sapiens (Human), UniProt Q99500). As to the kind of experiment: Receptor [35S] GTPγS Binding Assay, S1P3. Format: biochemical. Conditions: membranes from EDG3-Ga15-b1a HEK293T cells. The protocol:
Compounds were loaded in a 384 Falcon v-bottom plate (0.5 μl/well in a 11 point, 3-fold dilution). Membranes prepared from S1P1/CHO cells or EDG3-Ga15-b1a HEK293T cells were added to the compound plate (40 μl/well, final protein 3 μg/well) with MULTIDROP®. [^35S] GTP (1250 Ci/mmol, Perkin Elmer) was diluted in assay buffer: 20 mM HEPES, pH7.5, 10 mM MgCl2, 150 mM NaCl, 1 mM EGTA, 1 mM DTT, 10 μM GDP, 0.1% fatty acid free BSA, and 10 μg/ml Saponin to 0.4 nM. 40 μl of the [^35S] GTP solution was added to the compound plate with a final concentration of 0.2 nM. The reaction was kept at room temperature for 45 min. At the end of incubation, all the mixtures in the compound plate were transferred to Millipore 384-well FB filter plates via the VELOCITY 11® Vprep liquid handler. The filter plate was washed with water 4 times by using the manifold Embla plate washer and dried at 60° C. for 45 min. MicroScint 20 scintillation fluid (30 μl) was added to each well for counting on the Packard TOPCOUNT®. EC50 is defined as the agonist concentration that corresponds to 50% of the Ymax (maximal response) obtained for each individual compound tested. The results in Table B were rounded to two digits.
A smaller value for GTPγS S1P1 EC50 value indicated greater activity for the compound in the GTPγS S1P1 binding assay. A larger value for the GTPγS S1P3 EC50 value indicated less activity in the GTPγS S1P3 binding assay.
For orientation: GTPγS is a poorly hydrolysed GTP analogue; its binding reports G protein activation.

Assay [2] concerns the target T1, S1P1. As to the kind of experiment: S1P1 Binding Assay. Conditions: 33P-S1P ligand, membranes from CHO cells expressing human S1P1. The protocol: Membranes were prepared from CHO cells expressing human S1P1. Cells pellets (1×10^8 cells/pellet) were suspended in buffer containing 20 mM HEPES, pH 7.5, 50 mM NaCl, 2 mM EDTA and Protease Inhibitor cocktail (Roche), and disrupted on ice using the Polytron homogenizer. The homogenate was centrifuged at 20,000 rpm (48,000 g) and the supernatant was discarded. The membrane pellets were resuspended in buffer containing 50 mM HEPES, pH 7.5, 100 mM NaCl, 1 mM MgCl2, 2 mM EDTA and stored in aliquots at […] after protein concentration determination.
Membranes (2 μg/well) and 0.03 nM final concentration of 33P-S1P ligand (1 mCi/ml, American Radiolabeled Chemicals) diluted in assay buffer (50 mM HEPES, pH7.4, 5 mM MgCl2, 1 mM CaCl2, 0.5% fatty acid free BSA, 1 mM NaF) were added to the compound plates (384 Falcon v-bottom plate (0.5 μl/well in a 11 point, 3-fold dilution). Binding was performed for 45 minutes at room temperature, terminated by collecting the membranes onto 384-well Millipore FB filter plates, and radioactivity was measured by TOPCOUNT®. The competition data of the test compounds over a range of concentrations was plotted as percentage inhibition of radioligand specific binding. The IC50 is defined as the concentration of competing ligand needed to reduce specific binding by 50%.
Table A below lists S1P1 Binding IC50 values from the following examples of this invention measured in the S1P1 binding assay described hereinabove. The results in Table A were rounded to two digits.

T1 sequence (P21453 whole entry): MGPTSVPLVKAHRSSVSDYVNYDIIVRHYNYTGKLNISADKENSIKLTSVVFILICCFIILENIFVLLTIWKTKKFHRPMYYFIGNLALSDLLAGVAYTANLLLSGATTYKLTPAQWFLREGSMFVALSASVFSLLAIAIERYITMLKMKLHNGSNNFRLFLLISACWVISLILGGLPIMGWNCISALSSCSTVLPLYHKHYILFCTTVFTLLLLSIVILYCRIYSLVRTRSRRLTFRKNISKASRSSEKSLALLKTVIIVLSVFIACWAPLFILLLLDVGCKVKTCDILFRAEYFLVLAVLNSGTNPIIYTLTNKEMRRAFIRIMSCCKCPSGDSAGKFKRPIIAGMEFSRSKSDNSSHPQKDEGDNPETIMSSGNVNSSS
S1P3, sequence (Q99500 whole entry): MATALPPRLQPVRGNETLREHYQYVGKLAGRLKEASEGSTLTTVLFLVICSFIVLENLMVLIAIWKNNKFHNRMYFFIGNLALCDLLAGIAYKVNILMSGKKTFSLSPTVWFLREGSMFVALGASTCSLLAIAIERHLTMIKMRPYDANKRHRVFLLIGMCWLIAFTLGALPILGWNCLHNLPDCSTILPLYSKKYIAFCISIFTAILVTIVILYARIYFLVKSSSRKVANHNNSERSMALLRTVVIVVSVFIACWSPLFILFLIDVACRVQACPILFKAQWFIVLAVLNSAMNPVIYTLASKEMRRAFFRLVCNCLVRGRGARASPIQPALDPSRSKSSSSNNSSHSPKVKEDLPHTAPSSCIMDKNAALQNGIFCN

Broadly, the EC50 is the concentration giving half of the maximal effect. A high value points to a need for much substance. In general, IC50 refers to the concentration at which inhibition is half-maximal. A low value points to greater potency in that assay. As to `O=C(O)C1CN(Cc2ccc(-c3noc(CCCC4(c5ccccc5)CCCCC4=O)n3)cc2)C1` (stereo not drawn) [Example 11, 1-(4-(5-(3-(2-oxo-1-phenylcyclohexyl)propyl)-1,2,4-oxadiazol-3-yl)benzyl)azetidine-3-carboxylic acid], the EC50 on S1P1 [1] was determined as 2.17 nM; on S1P3 it was 58.6 nM. Besides, the IC50 on S1P1 [2] was 1.68 nM.
`O=C1NC(=O)C2(CN(Cc3ccc(-c4noc(COCC5(c6ccc(Cl)cc6)CCC5)n4)cc3)C2)N1` [Example 19, 2-(4-(5-(((1-(4-chlorophenyl)cyclobutyl)methoxy)methyl)-1,2,4-oxadiazol-3-yl)benzyl)-2,5,7-triazaspiro[3.4]octane-6,8-dione]: the values for the 50% effective concentration (EC50) at S1P1 [1] and on S1P3 were 1270 nM and 5380 nM, respectively. This compound also came in with an IC50 on S1P1 [2] of 477 nM.
Turning to `O=C(O)C1CN(Cc2ccc(-c3noc(COCC4(c5ccc(Cl)cc5)CCC4)n3)c(F)c2)C1` [Example 143, 1-(4-(5-(((1-(4-chlorophenyl)cyclobutyl)methoxy)methyl)-1,2,4-oxadiazol-3-yl)-3-fluorobenzyl)-3-azetidinecarboxylic acid], the concentration giving a half-maximal response (EC50) on S1P1 [1] was 17.5 nM; on S1P3, 3730 nM. This compound displayed an IC50 at S1P1 [2] of 9.72 nM.
Regarding `O=C(O)C1CN(Cc2ccc(-c3noc(COCC4(c5ccc(F)cc5)CCCCC4)n3)cc2)C1` [Example 18, 1-(4-(5-(((1-(4-fluorophenyl)cyclohexyl)methoxy)methyl)-1,2,4-oxadiazol-3-yl)benzyl)azetidine-3-carboxylic acid], the EC50 at S1P1 [1] stood at 0.78 nM; on S1P3, 9.23 nM. Besides, at S1P1 [2], the IC50 came out at 0.31 nM.
As for `O=C(O)C1CN(Cc2ccc(-c3noc(/C=C/C4(Cc5ccccc5)CCC4)n3)cc2)C1` [Example 103, 1-(4-(5-((E)-2-(1-benzylcyclobutyl)vinyl)-1,2,4-oxadiazol-3-yl)benzyl)-3-azetidinecarboxylic acid], the EC50 on S1P1 [1] was found to be 17.1 nM; at S1P3 it was 1490 nM.
Regarding `Cc1cc(-c2noc(CCC3(c4ccc(F)cc4)CCCCC3)n2)cc(C)c1OC[C@@H](O)CO` [Example 4], the EC50 at S1P1 [1] worked out at 0.51 nM; on S1P3, 10.2 nM. The compound further returned an IC50 on S1P1 [2] of 0.12 nM.
Taken in the same sequence, the figures for `O=C(O)C1CN(Cc2ccc(-c3noc(COCC4(c5ccc(Cl)cc5)CCC4)n3)c(Cl)c2)C1` [Example 141, 1-(3-chloro-4-(5-(((1-(4-chlorophenyl)cyclobutyl)methoxy)methyl)-1,2,4-oxadiazol-3-yl)benzyl)-3-azetidinecarboxylic acid] were 50.7 nM, 5240 nM and 12 nM.
Turning to `O=C(O)C1CN(Cc2ccc(-c3noc(C(F)(F)C(O)C4(c5ccc(Cl)cc5)CC4)n3)cc2)C1` (stereo not drawn) [Example 85, 1-(4-(5-(2-(1-(4-chlorophenyl)cyclopropyl)-1,1-difluoro-2-hydroxyethyl)-1,2,4-oxadiazol-3-yl)benzyl)-3-azetidinecarboxylic acid], the EC50 was 700 nM on S1P1 [1] and over 62500 nM on S1P3. This compound also yielded an IC50 on S1P1 [2] of 135 nM.
Taken in the same sequence, the figures for `O=C(O)C1CN(Cc2ccc(-c3noc(C/C=C/C4(c5ccc(F)cc5)CCCCC4)n3)cc2)C1` [Example 100, 1-(4-(5-((2E)-3-(1-(4-fluorophenyl)cyclohexyl)-2-propen-1-yl)-1,2,4-oxadiazol-3-yl)benzyl)-3-azetidinecarboxylic acid] were 0.41 nM, 11.7 nM and 3.4 nM.
Take `O=C(O)C1CN(Cc2ccc(-c3noc(CCC4(c5ccc(F)cc5)CCCCC4)n3)cc2)C1` [Example 63, 1-(4-(5-(2-(1-(4-fluorophenyl)cyclohexyl)ethyl)-1,2,4-oxadiazol-3-yl)benzyl)-3-azetidinecarboxylic acid]: the EC50 at S1P1 [1] was 2.74 nM; at S1P3 it was 4.94 nM. The compound also gave an IC50 on S1P1 [2] of 0.21 nM.
The compound `O=C(O)C1CN(Cc2ccc(-c3noc(/C=C/C4(c5ccc(C(F)(F)F)cc5)CCCCC4)n3)cc2)C1` [Example 88, 1-(4-(5-((E)-2-(1-(4-(trifluoromethyl)phenyl)cyclohexyl)vinyl)-1,2,4-oxadiazol-3-yl)benzyl)-3-azetidinecarboxylic acid] registered an IC50 at S1P1 [2] of 26.7 nM.
